Measured values: US20180055857A1, “TREATMENT OF ACNE VULGARIS WITH SEQUENTIAL TOPICAL FORMULATIONS COMPRISING ANTIMICROBIAL ORGANIC ACID ANIONS IN ALKALINE PHASE” (KANTIAN SCIENCES CORPORATION, priority 2015, published 2018)
Where two headings read alike, the source gives them in different places.

Assays:
E. coli O157:H7 = conditions: beef tissue briefly dipped in a 1% acid solution at 55° C.; cited from earlier work
Listeria monocytogenes = conditions: beef tissue briefly dipped in a 1% acid solution at 55° C.; cited from earlier work

Which results are given for `O=NO` [Nitrite]?
% HONO (pH 2.6): 83.3%; % NO2^− (pH 2.6): 16.7%; % HONO (pH 2.8): 76.0%; % NO2^− (pH 2.8): 24.0%; % HONO (pH 3.0): 66.7%; % NO2^− (pH 3.0): 33.3%; % HONO (pH 3.3): 50.0%; % NO2^− (pH 3.3): 50.0%; % HONO (pH 3.5): 38.8%; % NO2^− (pH 3.5): 61.2%; % HONO (pH 4.0): 16.6%; % NO2^− (pH 4.0): 63.4%

Which “reduction of E. coli O157:H7” value (E. coli O157:H7) does the source give for `O=C(O)/C=C/C(=O)O` [fumaric acid] here?
The value was “much more effective than lactic or acetic acids”.

What about the “reduction of Listeria monocytogenes” value (Listeria monocytogenes) of the same compound?
Its value is “much more effective than lactic or acetic acids”.
